# Measured values taken from paper PMC11519908, “Luminescent Ln(III)-Metallopeptide Sensors for Monitoring Pseudomonas aeruginosa Elastase B Activity in Complex Biological Media” (ACS Sensors, 2024).
# Experiments:
# [1] = test system: supernatant from the P. aeruginosa strain producing LasB; experiment: Luminescence of probe with LasB-secreting P. aeruginosa supernatant with and without EDTA; assay type: biochemical, Pseudomonas aeruginosa
# [2] = molecular target: LasB (Pseudomonas aeruginosa, UniProt P14756); settings: 1, 5, 7.5, 10 µM probe, 1 mM CaCl2, 60.6 nM (2 µg/mL) LasB, 10 mM HEPES pH 8.0, 37 °C, time-gated emission every 15 min for 10 h, fit to hit-and-run model (Dynafit)
# [3] = Luminescence of probe in the presence of glutathione; assay type: physicochemical; settings: 5 µM probe, 100 µM GSH, HEPES buffer pH 8, 37 °C, time-gated emission
# [4] = Luminescence of probe in the presence of H2O2; assay type: physicochemical; settings: 5 µM probe, 0.5 mM H2O2, HEPES buffer pH 8, 37 °C, time-gated emission
# [5] = test system: supernatant from P. aeruginosa strain producing LasB; assay type: biochemical, Pseudomonas aeruginosa; settings: P1[Tb]: 0.5 mM probe, 50 mM CaCl2, HEPES buffer, 9 µL supernatant, RT, 1 h before injection
# [6] = Luminescence of probe in the presence of pyocyanin and P. aeruginosa supernatant; assay type: physicochemical
# [7] = test system: E. coli supernatant; settings: 10 µM probe, 1 mM CaCl2, HEPES buffer, 10 µL E. coli supernatant, 20 h at 37 °C, time-gated emission
# Chain of LasB (P14756 198-498): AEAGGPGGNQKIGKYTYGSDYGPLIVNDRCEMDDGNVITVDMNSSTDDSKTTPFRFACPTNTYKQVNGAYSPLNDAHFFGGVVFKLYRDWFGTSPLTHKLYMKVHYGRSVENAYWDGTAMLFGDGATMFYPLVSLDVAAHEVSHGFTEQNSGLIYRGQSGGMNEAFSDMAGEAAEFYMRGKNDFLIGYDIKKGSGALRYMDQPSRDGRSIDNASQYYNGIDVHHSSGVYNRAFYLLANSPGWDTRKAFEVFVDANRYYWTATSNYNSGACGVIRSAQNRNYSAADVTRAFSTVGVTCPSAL
substance,measurement,setting,value
EGLAEW [P1[Tb]],luminescence response to P. aeruginosa supernatant added after incubation in 1.2% FBS,,gradual reduction in the luminescence emission
same,time of stable luminescence in 1.2% FBS,"10 µM probe, 1.2% v/v fetal bovine serum in HEPES buffer, 37 °C, time-gated emission every hour for 12 h",at least 12 h
same,"reduction of luminescence 3 h after supernatant addition, in the absence of EDTA",[1],approximately 90%
same,"reduction of luminescence 3 h after supernatant addition, with EDTA",[1],approximately 30%
same,apparent rate constant ksub (equivalent to specificity constant kcat/Km),[2],0.438 ± 0.007 μM^–1min^–1
same,change of luminescence 20 h after addition of glutathione,[3],remained constant
same,change of luminescence 20 h after addition of H2O2,[4],remained constant
same,cleavage of probe by wild-type P. aeruginosa supernatant (HPLC-MS),[5],cleaved at the G-L bond
same,probe activity toward P. aeruginosa supernatant in the presence of pyocyanin,[6],remained active
same,reduction of emission band intensity on incubation with pyocyanin,"[6]; 5 µM probe, 1 µM pyocyanin, HEPES buffer, 37 °C, time-gated emission",approximately 20%
same,change of luminescence with E. coli supernatant,[7],no changes in the luminescence
